Data on four molecules can be found in patent publication US8633245B2, “PAI-1 inhibitor” (Institute of Medicinal Molecular Design, Inc., priority 2008, dated 2014).

One assay concerns thrombus in AV shunt. As to the kind of experiment: Test Example 5: anti-thrombotic activity (rat AV shunt model). Type of assay: in vivo. The note with it: mean ± S.E., n=5, vehicle 72.7 ± 2.7. As for the experimental part:
AV shunt model using 7-week old male Crlj: CD (SD) rats were prepared, and anti thrombotic activities when the compounds according to the present invention were administered orally were examined.
Required amount of the test compounds were weighed and suspended by adding 0.5% CMC (carboxymethylcellulose)-Na solution little by little, and the solutions (10 mg/kg or 30 mg/kg solution) were prepared so that their final concentration became 2 mg/ml or 6 mg/ml using a graduated cylinder. 5 ml was prepared for 1 course.
To 7-week old Crlj: CD (SD) male rats, 5 ml/kg of vehicle (0.5% CMC-Na solution) or 5 ml/kg of the administering solution of the test compound (10 mg/kg or 30 mg/kg) were administered orally for 4 days. The administration on the 4th day was carried out about 1 hour before the following perfusion start.
On the connected part where the silk thread was through, parafilm was wrapped around to avoid blood leakage.
Rats were anesthetized with pentobarbital (50 mg/kg; intraperitoneally). Saline was filled in the above catheter, and each of the ends of the catheter was inserted in right carotid artery and left carotid artery, respectively, and blood was circulated. 30 minutes later, the catheter was pinched with forceps to stop blood flow, and tube parts where the silk thread was through were cut and removed. The silk thread was carefully removed from the tubes, remaining wet weight was weighed after removing the liquid phase with filter paper, and further subtraction of the weight of the silk thread, gave the thrombus weight.
For the thrombus weight in each group, an average value±standard error (S.E.) was calculated. For the significance test between the vehicle administered group and the compound according to the present invention administered group, Dunnett's multiple comparison was carried out (significance level 5%). For the test, the SAS System Release 8.2 (TS2M0) for Windows (Registered Trademark) (SAS Institute Inc.) and its cooperative system EXSAS Ver. 7.10 (Arm Systex Co. Ltd.) were employed.

Assay [1] deals with T1, recombinant human PAI-1 (Homo sapiens, UniProt P05121).
T1 construct: purchased Molecular Innovations, Inc
T1 sequence (P05121 24-402): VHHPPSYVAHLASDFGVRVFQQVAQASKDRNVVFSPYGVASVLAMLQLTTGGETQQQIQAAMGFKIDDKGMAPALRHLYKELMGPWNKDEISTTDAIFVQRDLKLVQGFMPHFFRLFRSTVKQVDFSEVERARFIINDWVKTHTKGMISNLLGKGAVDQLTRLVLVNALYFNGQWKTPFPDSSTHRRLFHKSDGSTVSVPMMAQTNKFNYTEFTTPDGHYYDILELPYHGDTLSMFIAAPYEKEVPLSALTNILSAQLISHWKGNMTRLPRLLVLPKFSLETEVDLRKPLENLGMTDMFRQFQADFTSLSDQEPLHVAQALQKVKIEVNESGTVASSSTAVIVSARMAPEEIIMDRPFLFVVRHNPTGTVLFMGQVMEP
Description: Test Example 1: human PAI-1 inhibitory activity (tPA fluorogenic substrate, pH 7.5 Tris buffer). It counts as biochemical. As to conditions: Tris buffer. As for the experimental part: 50 mM Tris, 150 mM NaCl, 10 μg/ml BSA, 0.01% Tween80 (SIGMA-ALDRICH Corporation)

The target of assay [2] is T1, recombinant human PAI-1. Description: Test Example 4: human PAI-1 inhibitory activity (amount of PAI-1 bound to plate-coated tPA, ELISA). As to conditions: read-out: Inhibition Rate of PAI-1 Activity (%). Type of assay: binding. As for the experimental part: 100 μl of tPA solution, where one-chain recombinant tPA (hereinafter referred to as tPA; American diagnostica, inc.) had been diluted with Buffer A to achieve a concentration of 10 μg/ml, was added to each well of a 96-well plate (Nunc Maxisorp), and the plate was incubated for one night at 4° C. to be coated with tPA. Then, after suction of tPA solution from the 96-well plate, the plate was rinsed successively with Buffer A and Buffer B.
To Buffer B, solutions of the compound according to the present invention dissolved with DMSO (final DMSO concentration: 0.2%) and recombinant human PAI-1 (Molecular Innovations, Inc.) were added. The mixtures were blended so that the final concentrations would be 0.1 to 3.0 μM and 50 ng/ml respectively, and were incubated for 15 minutes on ice. These mixed solutions were added to the rinsed 96-well plate at 100 μl/well, and incubated for 60 minutes at room temperature. To prepare a calibration curve, PAI-1 solutions without the compound according to the present invention (solutions where the final concentrations being 100, 50, 25, 12.5, 6.25, 3.13, or 1.56 ng/ml PAI-1) were added at 100 μl/well, and the plate was incubated for 60 minutes at room temperature, as standard.
After incubation, the reaction mixture was removed by suction, and each well was rinsed with Wash Buffer. Next, anti-human PAI-1 monoclonal antibody (PROGEN Inc.) diluted with Buffer C to be 3.0 μg/ml was added to the 96-well plate at 100 μl/well, and the plate was incubated for 1 hour at room temperature. After rinsing each well with Wash Buffer, alkaline phosphatase-labeled goat anti-mouse IgG (H+L) (Jackson ImmunoResearch, Inc.) diluted with Buffer D to be 0.12 μg/ml was added at 100 μl/well, and the plate was incubated for 1 hour at room temperature. After rinsing each well with Wash Buffer, 1.0 mg/ml p-Nitrophenyl Phosphate (SIGMA) was added to the 96-well plate at 100 μl/well to start the reaction. After 30 to 60 minutes, 25 μl of 0.5 N NaOH was added to stop the reaction, and the absorbance was measured at 405 nm using a multiplate reader (GENios; TECAN G.M.B.H.). Based on the calibration curve prepared from the standard wells, amounts of PAI-1 bound to tPA in the wells that had been treated with the compound according to the present invention were calculated, and the PAI-1 inhibition rates by the compounds according to the present invention were obtained by the following equation. [PAI-1 Inhibition Rate (%)]=[1−(amount of PAI-1 bound to tPA on the well by treatment with the compound according to the present invention)/(amount of PAI-1 bound to tPA on the well by treatment with PAI-1 solution not including the compound according to the present invention (solution having the final concentration of 50 ng/ml PAI-1)]×100
(An ELISA detects its analyte on a solid surface through an enzyme-linked reagent.)

For assay [3], the target named is T1, recombinant human PAI-1. Description: Test Example 2: human PAI-1 inhibitory activity (tPA fluorogenic substrate, pH 7.4 HEPES buffer). It counts as biochemical. As for the experimental part: 0.1 M HEPES, 0.1 M NaCl. 1 mM EDTA. 0.1% Polyethylene glycol 8,000 (Hampton Research Corporation),
2 mM Dimethyldecylphoshine oxide [Apo-10] (Fluka Corporation)

In another assay the target is T2, recombinant rat PAI-1 (Rattus norvegicus, UniProt P20961).
T2 construct: purchased Molecular Innovations, Inc
T2 sequence (P20961 24-402): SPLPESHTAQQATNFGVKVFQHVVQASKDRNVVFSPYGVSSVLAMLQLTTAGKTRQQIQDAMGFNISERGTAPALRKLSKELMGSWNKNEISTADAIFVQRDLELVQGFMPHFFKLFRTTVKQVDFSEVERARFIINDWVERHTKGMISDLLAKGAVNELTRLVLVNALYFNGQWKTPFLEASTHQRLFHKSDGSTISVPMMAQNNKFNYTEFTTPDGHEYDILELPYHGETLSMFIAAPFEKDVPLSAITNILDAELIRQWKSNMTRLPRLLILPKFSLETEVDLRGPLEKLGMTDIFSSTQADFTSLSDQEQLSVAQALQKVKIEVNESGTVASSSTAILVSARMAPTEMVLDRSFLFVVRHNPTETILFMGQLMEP
As to the kind of experiment: Test Example 3: rat PAI-1 inhibitory activity (as Test Example 2 with rat PAI-1). Type of assay: biochemical. As to conditions: rat PAI-1.

Usually inhibition stands for the change of the read-out against control, counted positive when it falls. Usually IC50 stands for the midpoint of a concentration-inhibition curve.

Description for recombinant rat PAI-1: To this solution, 6 μl of 80 nM recombinant human PAI-1 (Molecular Innovations, Inc.) solution prepared with Tris buffer was added, and the plate was incubated for 5 minutes at room temperature. Furthermore, 30 μl of 800 IU/ml two-chain tPA (Activity Standard; American diagnostica, inc.) prepared with Tris buffer was added, and the mixed solution was incubated for 15 minutes at room temperature. Then, 30 μl of 400 μM fluorogenic substrate (Pyr-Gly-Arg-MCA; Peptide Institute, Inc.) for tPA prepared with Tris buffer was added and reacted for 30 minutes at room temperature.

On to `CC(C)(C)c1ccc(COc2ccc(-c3ccc(OC(F)(F)F)cc3)cc2CCC(=O)O)cc1` [Compound 5], for which the “Thrombus Weight” value with thrombus in AV shunt (10 mg/kg/day orally for 4 days) was 57.5 ± 5.0 mg.
In the case of `CN(C(=O)C(=O)O)c1cc(-c2ccc(OC(F)(F)F)cc2)ccc1OCc1ccc(C(C)(C)C)cc1` [Compound 17], in the assay with thrombus in AV shunt (30 mg/kg/day orally for 4 days), the “Thrombus Weight” value came out at 60.4 ± 3.8 mg. For the same molecule, the “Inhibition Rate of PAI-1 Activity (%)” value was found to be 37% on recombinant human PAI-1 [1] (Compound Concentration 5 μM), 67% on recombinant human PAI-1 [1] (Compound Concentration 10 μM) and 97% on recombinant human PAI-1 [1] (Compound Concentration 25 μM).
With `CC(C)(C)c1ccc(CN(C(=O)C(=O)O)c2ccc(-c3ccc(OC(F)(F)F)cc3)cc2)cc1` [Compound 129], the “Thrombus Weight” value with thrombus in AV shunt (10 mg/kg/day orally for 4 days) was 56.7 ± 3.8 mg.
Consider `CCC(CC)Oc1ccc(-c2ccc(OC(F)(F)F)cc2)cc1N(CCCc1ccccc1)C(=O)C(=O)O` [Compound 233], for which the inhibition at 0.3 µM at recombinant human PAI-1 [2] (Compound Concentration 0.3 μM) worked out at 13%; at recombinant human PAI-1 [3] (Compound Concentration 0.3 μM, HEPES buffer, read-out: Inhibition Rate of PAI-1 Activity (%)), 9%; on recombinant rat PAI-1 (compound concentration 0.3 μM, read-out: Inhibition Rate of PAI-1 Activity (%)), 4%. The inhibition at 1 µM was 28% at recombinant human PAI-1 [2] (Compound Concentration 1 μM); 55% on recombinant human PAI-1 [3] (Compound Concentration 1 μM, HEPES buffer, read-out: Inhibition Rate of PAI-1 Activity (%)); 20% on recombinant rat PAI-1 (compound concentration 1 μM, read-out: Inhibition Rate of PAI-1 Activity (%)). Besides, the inhibition at 3 µM amounted to 50% on recombinant human PAI-1 [2] (Compound Concentration 3 μM); 97% on recombinant human PAI-1 [3] (Compound Concentration 3 μM, HEPES buffer, read-out: Inhibition Rate of PAI-1 Activity (%)); 93% on recombinant rat PAI-1 (compound concentration 3 μM, read-out: Inhibition Rate of PAI-1 Activity (%)). Moreover, on recombinant human PAI-1 [3] (Compound Concentration 0.1 μM, HEPES buffer, read-out: Inhibition Rate of PAI-1 Activity (%)), the inhibition at 0.1 µM stood at 0%. Further, the IC50 on recombinant human PAI-1 [3] (human PAI-1, calculated from the inhibition rates) is 900 nM; at recombinant rat PAI-1 (calculated from the inhibition rates), 1460 nM. Further, on recombinant human PAI-1 [1] (Compound Concentration 2.5 μM, read-out: Inhibition Rate of PAI-1 Activity (%)), the inhibition at […] worked out at 49%. Also, the inhibition at 5 µM on recombinant human PAI-1 [1] (Compound Concentration 5 μM, read-out: Inhibition Rate of PAI-1 Activity (%)) worked out at 78%. Moreover, the inhibition at 10 µM is 93% on recombinant human PAI-1 [1] (Compound Concentration 10 μM, read-out: Inhibition Rate of PAI-1 Activity (%)) and above 99% on recombinant rat PAI-1 (compound concentration 10 μM, read-out: Inhibition Rate of PAI-1 Activity (%)).
